Read-outs that look alike come from different tables or passages of the source.
Molecular target: T1, Human BCL-XL protein (N-terminal HiBiT tagged BCL-XL in HT1080 cells) (Homo sapiens, UniProt Q07817)
T1 construct: expressed in transfected cells; host or cells: HT-1080 (ATCC CCL-121), stably transduced with lentivirus pLV-UBC-N-HiBiT-BCL-XL-PGK-puro and selected with puromycin
Test: HiBiT based degradation assay
Format: cell-based
Settings: HT1080 cells expressing HiBiT-BCL-XL; for Ymin (6 h) / Ymin (24 h): BCL-XL degradation normalized with DMSO control; for DC50: BCL-XL degradation
Procedure, shortened: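 This HiBiT degradation assay measured loss of BCL-XL in HT1080 cells that stably express an N-terminal HiBiT-BCL-XL fusion delivered by lentivirus. Cells were added to compound-spotted 384-well plates, and luminescence was read on a PHERAstar FSX reader. Signal was expressed relative to DMSO controls, curves were fitted by four-parameter logistic regression, and for hook-shaped curves the Ymin point served as the bottom plateau when calculating EC50.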

T1 sequence (Q07817 whole entry): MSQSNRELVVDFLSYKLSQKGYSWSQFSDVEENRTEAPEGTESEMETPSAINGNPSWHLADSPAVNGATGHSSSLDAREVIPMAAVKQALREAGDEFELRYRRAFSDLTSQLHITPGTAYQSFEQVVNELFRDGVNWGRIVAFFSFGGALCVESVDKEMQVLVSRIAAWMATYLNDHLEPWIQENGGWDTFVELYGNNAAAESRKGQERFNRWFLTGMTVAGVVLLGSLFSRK

SMILES | Ymin (6 h) | Ymin (24 h) | DC50 (6 h, read-out: EC50 (6 h)) [nM] | DC50 (24 h, read-out: EC50 (24 h)) [nM]
Cc1c(OCCCC2CCN(CC(=O)N3CCN(c4ccc5c(C6CCC(=O)NC6=O)nn(C)c5c4)CC3)CC2)cccc1-c1ccc(N2CCc3cccc(C(=O)Nc4nc5ccccc5s4)c3C2)nc1C(=O)O (centres unmarked) [Compound 142, 6-(8-(benzo[d]thiazol-2-ylcarbamoyl)-3,4-dihydroisoquinolin-2(1H)-yl)-3-(3-(3-(1-(2-(4-(3-(2,6-dioxopiperidin-3-yl)-1-methyl-1H-indazol-6-yl)piperazin-1-yl)-2-oxoethyl)piperidin-4-yl)propoxy)-2-methylphenyl)picolinic acid] | A (Ymin < 50%) | A (Ymin < 50%) | < 100 | < 100
Cc1c(OCCCC2CCN(CC(=O)Nc3ccc4c(C5CCC(=O)NC5=O)nn(C)c4c3)CC2)cccc1-c1ccc(N2CCc3cccc(C(=O)Nc4nc5ccccc5s4)c3C2)nc1C(=O)O (centres unmarked) [Compound 121, 6-(8-(Benzo[d]thiazol-2-ylcarbamoyl)-3,4-dihydroisoquinolin-2(1H)-yl)-3-(3-(3-(1-(2-((3-(2,6-dioxopiperidin-3-yl)-1-methyl-1H-indazol-6-yl)amino)-2-oxoethyl)piperidin-4-yl)propoxy)-2-methylphenyl)picolinic acid] | A (Ymin < 50%) | A (Ymin < 50%) | < 100 | < 100
Cc1c(O[C@H]2CC[C@H](CCCCN3CCC[C@@H](c4cccc5c(C6CCC(=O)NC6=O)nn(C)c45)C3)CC2)cccc1-c1ccc(N2CCc3cccc(C(=O)Nc4nc5ccccc5s4)c3C2)nc1C(=O)O (single isomer, unassigned) [Compound 351b] | – | A (Ymin < 50%) | – | < 100
Cc1cc(O[C@H]2CC[C@H](CCC(=O)N3CCN(c4ccc5c(C6CCC(=O)NC6=O)nn(C)c5c4)CC3)CC2)ccc1-c1ccc(N2CCc3cccc(C(=O)Nc4nc5ccccc5s4)c3C2)nc1C(=O)O (some centres unmarked) [Compound 251a, 6-(8-(benzo[d]thiazol-2-ylcarbamoyl)-3,4-dihydroisoquinolin-2(1H)-yl)-3-(4-(((1r,4r)-4-(3-(4-(3-(2,6-dioxopiperidin-3-yl)-1-methyl-1H-indazol-6-yl)piperazin-1-yl)-3-oxopropyl)cyclohexyl)oxy)-2-methylphenyl)picolinic acid] | – | A (Ymin < 50%) | – | < 100
Cc1c(Oc2ccc(CC(F)(F)CN3CCN(c4cccc5c(C6CCC(=O)NC6=O)nn(C)c45)CC3)cc2)cccc1-c1ccc(N2CCc3cccc(C(=O)Nc4nc5ccccc5s4)c3C2)nc1C(=O)O (centres unmarked) [Compound 201, 6-[8-(1,3-benzothiazol-2-ylcarbamoyl)-3,4-dihydro-1H-isoquinolin-2-yl]-3-[3-[4-[3-[4-[3-(2,6-dioxo-3-piperidyl)-1-methyl-indazol-7-yl]piperazin-1-yl]-2,2-difluoro-propyl]phenoxy]-2-methyl-phenyl]pyridine-2-carboxylic acid] | B (50% ≤ Ymin < 70%) | A (Ymin < 50%) | 1000 to 10000 | 1000 to 10000
Cc1c(OCCCC2CCN(CCCOc3ccc4c(C5CCC(=O)NC5=O)nn(C)c4c3)CC2)cccc1-c1ccc(N2CCc3cccc(C(=O)Nc4nc5ccccc5s4)c3C2)nc1C(=O)O (centres unmarked) [Compound 172, 6-(8-(benzo[d]thiazol-2-ylcarbamoyl)-3,4-dihydroisoquinolin-2(1H)-yl)-3-(3-(3-(1-(3-((3-(2,6-dioxopiperidin-3-yl)-1-methyl-1H-indazol-6-yl)oxy)propyl)piperidin-4-yl)propoxy)-2-methylphenyl)picolinic acid] | C (Ymin ≥ 70%) | A (Ymin < 50%) | 100 to 1000 | < 100
